# Values quoted from earlier work as cited in patent US6514992B1, “Caspases and apoptosis” (SmithKline Beecham Corporation, priority 1998, dated 2003).
# Tested on: osteoclasts of murine bone marrow cultures
# Settings: murine bone marrow cultures grown for 6 days in vitro
substance,measurement,value
TGF-β1: cytokine cited as inducing apoptosis in osteoclasts of murine bone marrow cultures,apoptosis induced in osteoclasts,approx. 30%
